The NIST ThermoML archive (doi:10.1016/j.fluid.2014.10.003)
Values joined by “and” are separate entries in the source; they are usually repeats but may differ in a detail not shown here. Equal values may be shown once.

Conditions: Liquid, Vibrating tube method

CCCCC(CC)COC(=O)c1ccc(C(=O)OCC(CC)CCCC)c(C(=O)OCC(CC)CCCC)c1 (configuration not stated) [tris(2-ethylhexyl) trimellitate]
Conditions | mass density
293.15 K, 100 kPa | 988.2 kg/m3
293.15 K, 2510 kPa | 989.6 kg/m3
293.15 K, 5000 kPa | 991 kg/m3
293.15 K, 7510 kPa | 992.4 kg/m3
293.15 K, 10010 kPa | 993.8 kg/m3
293.15 K, 15010 kPa | 996.6 kg/m3
293.15 K, 19990 kPa | 999.2 kg/m3
293.15 K, 30010 kPa | 1004.3 kg/m3
293.15 K, 40020 kPa | 1009.2 kg/m3
293.15 K, 50030 kPa | 1013.8 kg/m3
293.15 K, 68010 kPa | 1021.5 kg/m3
313.15 K, 100 kPa | 973.4 kg/m3
313.15 K, 2500 kPa | 974.9 kg/m3
313.15 K, 2510 kPa | 974.9 kg/m3
313.15 K, 5020 kPa | 976.4 kg/m3 and 976.5 kg/m3
313.15 K, 7490 kPa | 977.9 kg/m3
313.15 K, 10010 kPa | 979.4 kg/m3 and 979.5 kg/m3
313.15 K, 15010 kPa | 982.4 kg/m3
313.15 K, 20000 kPa | 985.3 kg/m3
313.15 K, 30030 kPa | 990.8 kg/m3
313.15 K, 40000 kPa | 996 kg/m3
313.15 K, 40020 kPa | 996 kg/m3
313.15 K, 50000 kPa | 1001 kg/m3
313.15 K, 68000 kPa | 1009.3 kg/m3
333.15 K, 100 kPa | 958.9 kg/m3
333.15 K, 2500 kPa | 960.4 kg/m3 and 960.5 kg/m3
333.15 K, 5000 kPa | 962.1 kg/m3
333.15 K, 7510 kPa | 963.8 kg/m3
333.15 K, 10010 kPa | 965.4 kg/m3
333.15 K, 15010 kPa | 968.6 kg/m3
333.15 K, 20000 kPa | 971.6 kg/m3
333.15 K, 30010 kPa | 977.6 kg/m3
333.15 K, 39990 kPa | 983.1 kg/m3
333.15 K, 50000 kPa | 988.4 kg/m3
333.15 K, 67990 kPa | 997.2 kg/m3
353.15 K, 100 kPa | 944.5 kg/m3
353.15 K, 2490 kPa | 946.2 kg/m3
353.15 K, 5020 kPa | 948.1 kg/m3
353.15 K, 7510 kPa | 949.8 kg/m3
353.15 K, 10020 kPa | 951.6 kg/m3
353.15 K, 14990 kPa | 955 kg/m3
353.15 K, 20010 kPa | 958.3 kg/m3
353.15 K, 30000 kPa | 964.7 kg/m3
353.15 K, 40020 kPa | 970.6 kg/m3
353.15 K, 49990 kPa | 976.2 kg/m3
353.15 K, 68000 kPa | 985.5 kg/m3
373.15 K, 100 kPa | 930.1 kg/m3
373.15 K, 2510 kPa | 932 kg/m3
373.15 K, 5020 kPa | 934 kg/m3
373.15 K, 7500 kPa | 935.9 kg/m3
373.15 K, 10040 kPa | 937.9 kg/m3
373.15 K, 15000 kPa | 941.6 kg/m3
373.15 K, 20030 kPa | 945.2 kg/m3
373.15 K, 30010 kPa | 952 kg/m3
373.15 K, 40020 kPa | 958.3 kg/m3
373.15 K, 49990 kPa | 964.3 kg/m3
373.15 K, 68010 kPa | 974.2 kg/m3
